The values below come from US20120301895A1, “METHODS OF MODULATING BINDING OF SON OF SEVENLESS TO PHOSPHATIDIC ACID AND IDENTIFYING COMPOUNDS THAT MODULATE SUCH BINDING” (THE RESEARCH FOUNDATION OF STATE UNIVERSITY OF NEW YORK, priority 2007, published 2012).

For this assay, the system named is Calu-1 cells. Nature of the assay: Cell viability and PARP cleavage in Calu-1 cells. Type of assay: cell-based, human. The conditions noted are these: honokiol 20 μM, 0.5% serum. On the procedure:
In FIG. 17A, T24 and Calu1 cells (obtained from the American Type Culture Collection) were plated in DMEM containing 10% serum for 48 hr and then shifted to either 10% serum or 0.5% serum overnight as indicated. Honokiol (20 μM) or control ethanol was then added for 4 hr as indicated. [^3H]-Myristate was added with the honokiol. After 4 hr, BtOH (0.7%) was added for 20 min, at which time the cells were harvested and the level of phosphatidyl-BtOH (P-Bt) was determined as in FIGS. 12A-C. The experiments shown are representative of at least two independent experiments. In FIG. 17B, T24 and Calu-1 cells were plated in DMEM with 10% serum for 48 hr then changed to DMEM containing either 10% or 0.5% serum overnight as indicated. Honokiol (20 μM) or control ethanol was then added either at the time of changing media (24 hr), or 4 hr before harvesting as in FIGS. 14A-E, at which time the cells were examined for cell viability or PARD cleavage. […]
Cell viability was determined by trypan blue exclusion. […] After 10 min, trypan blue uptake (dead cells) was determined by counting on a hemocytometer. Apoptosis was evaluated by examination of cleavage of the caspase 3 substrate PARP as described previously (Chen et al., “Alternative Phospholipase D/mTOR Survival Signal in Human Breast Cancer Cells,” Oncogene 24:672-9 (2005), which is hereby incorporated by reference in its entirety). […]

Turning to `C=CCc1ccc(O)c(-c2ccc(O)c(CC=C)c2)c1` [honokiol, Honokiol], the PARP cleavage result was “induced” and the cell death entry was “induced”.
